Our source for the IC50 values is US8946230B2, “Aryl- and heteroaryl- nitrogen-heterocyclic compounds as PDE10 inhibitors” (Amgen Inc., priority 2010, dated 2015).

Usually IC50 stands for the concentration needed to halve the response being measured.

In one assay the target is T1, PDE10 (UniProt Q8CA95).
T1 sequence (Q8CA95 1-790): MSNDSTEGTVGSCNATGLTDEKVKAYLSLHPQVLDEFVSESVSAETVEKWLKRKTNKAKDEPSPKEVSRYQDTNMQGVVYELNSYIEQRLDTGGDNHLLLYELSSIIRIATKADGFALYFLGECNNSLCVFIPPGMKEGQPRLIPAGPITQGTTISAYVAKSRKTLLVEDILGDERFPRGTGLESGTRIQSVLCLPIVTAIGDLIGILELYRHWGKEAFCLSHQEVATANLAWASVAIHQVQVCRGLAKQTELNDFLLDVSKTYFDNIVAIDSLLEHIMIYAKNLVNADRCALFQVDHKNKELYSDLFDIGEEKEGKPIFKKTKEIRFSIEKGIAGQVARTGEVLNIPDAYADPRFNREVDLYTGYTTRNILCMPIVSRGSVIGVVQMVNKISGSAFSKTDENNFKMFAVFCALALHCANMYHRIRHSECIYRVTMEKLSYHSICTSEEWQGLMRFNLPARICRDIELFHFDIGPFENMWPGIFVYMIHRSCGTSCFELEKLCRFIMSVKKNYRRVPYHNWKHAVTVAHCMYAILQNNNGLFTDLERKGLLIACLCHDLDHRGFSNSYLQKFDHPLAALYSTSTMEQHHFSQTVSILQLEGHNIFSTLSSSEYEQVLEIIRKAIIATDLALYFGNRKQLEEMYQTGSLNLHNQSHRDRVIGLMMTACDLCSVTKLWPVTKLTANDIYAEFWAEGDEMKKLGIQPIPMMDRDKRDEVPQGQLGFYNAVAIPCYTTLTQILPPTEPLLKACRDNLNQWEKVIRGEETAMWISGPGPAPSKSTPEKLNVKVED
Nature of the assay: PDE10 enzyme inhibition, IMAP TR-FRET assay (Example A: MPDE10A7 Enzyme Activity and Inhibition). In kind it is biochemical. As to conditions: Table 1A, Examples 11-56; read-out: PDE10 IC50. On the procedure: MPDE10A7 Enzyme Activity and Inhibition Enzyme Activity. An IMAP TR-FRET assay was used to analyze the enzyme activity (Molecular Devices Corp., Sunnyvale Calif.). 5 μL of serial diluted PDE10A (BPS Bioscience, San Diego, Calif.) or tissue homogenate was incubated with equal volumes of diluted fluorescein labeled cAMP or cGMP for 60 min in 384-well polystyrene assay plates (Corning, Corning, N.Y.) at room temperature. After incubation, the reaction was stopped by adding 60 μL of diluted binding reagents and was incubated for 3 hours to overnight at room temperature. The plates were read on an Envision (Perkin Elmer, Waltham, Mass.) for time resolved fluorescence resonance energy transfer. The data were analyzed with GraphPad Prism (La Jolla, Calif.). Enzyme Inhibition. To check the inhibition profile, 5 μL of serial diluted compounds were incubated with 5 μL of diluted PDE10 enzyme (BPS Bioscience, San Diego, Calif.) or tissue homogenate in a 384-well polystyrene assay plate (Corning, Corning, N.Y.) for 30 min at room temperature. After incubation, 10 μL of diluted fluorescein labeled cAMP or cGMP substrate were added and incubated for 60 min at room temperature. The reaction was stopped by adding 60 μL of diluted binding reagents and plates were read on an Envision (Perkin Elmer, Waltham, Mass.) for time resolved fluorescence resonance energy transfer. The data were analyzed with GraphPad Prism (La Jolla, Calif.).
`Clc1ccc(-c2nccnc2N2CC(c3nc4cc(Cl)ccc4[nH]3)C2)cc1` [Example 32, 5-chloro-2-{1-[3-(4-chloro-phenyl)-pyrazin-2-yl]-azetidin-3-yl}-1H-benzoimidazole]: the half-maximal inhibitory concentration (IC50) was 141 nM.
On the same count and under the same terms, to `O=C(NCc1ccccc1)c1cccnc1N1CC(c2nc3cc(Cl)ccc3[nH]2)C1` [Example 19, N-Benzyl-2-[3-(5-chloro-1H-benzoimidazol-2-yl)-azetidin-1-yl]-nicotinamide] belongs 4650 nM; to `Cc1ccc2[nH]c(C3CN(c4nccnc4Cl)C3)nc2c1` [Example 48, 2-(1-(3-chloropyrazin-2-yl)azetidin-3-yl)-5-methyl-1H-benzo[d]imidazole], 456 nM.
Still for that read-out and setting: next, `Cc1ccc2[nH]c(C3CN(c4nccnc4N4CCOCC4)C3)nc2c1` [Example 46, 4-(3-(3-(5-methyl-1H-benzo[d]imidazol-2-yl)azetidin-1-yl)pyrazin-2-yl)morpholine]: 600 nM; `COc1ccccc1-c1nccnc1N1CC(c2nc3cc(Cl)ccc3[nH]2)C1` [Example 27, 5-chloro-2-{1-[3-(2-methoxy-phenyl)-pyrazin-2-yl]-azetidin-3-yl}-1H-benzoimidazole]: 4330 nM.

Still in this assay, the particulars now being: read-out: IC50.
For `N#Cc1ccc2[nH]c(C3CCN(c4nccnc4-c4ccccc4)CC3)nc2c1` [Example 1A, 2-[1-(3-PHENYL-PYRAZIN-2-YL)-PIPERIDIN-4-YL]-1H-BENZOIMIDAZOLE-5-CARBONITRILE], the 50% inhibitory concentration (IC50) is 272 nM.
On the same count and under the same terms, to `Clc1ccc2[nH]c(C3CN(c4nc(N5CCOCC5)ncc4Cl)C3)nc2c1` [Example 7, 4-(5-CHLORO-4-(3-(5-CHLORO-1H-BENZO[D]IMIDAZOL-2-YL)AZETIDIN-1-YL)PYRIMIDIN-2-YL)MORPHOLINE] belongs 155 nM.
